Test results taken from paper PMC6114107, “Characterization and validation of Entamoeba histolytica pantothenate kinase as a novel anti-amebic drug target” (International Journal for Parasitology: Drugs and Drug …, 2018).
Like-named read-outs stand apart in the source and are kept apart here.

Assays:
[1] = target: T1, E. histolytica pantothenate kinase (Entamoeba histolytica, UniProt B1N2P3); assay type: biochemical
recombinant EhPanK = assay: Regulation of EhPanK by CoA, acetyl CoA and malonyl CoA (double-reciprocal plots); assay type: biochemical, Entamoeba histolytica; details: inhibitor 0, 0.5, 2 mM; for Mechanism of inhibition with respect to ATP: various ATP, 0.2 mM pantothenate; for Mechanism of inhibition with respect to pantothenate: various pantothenate, 100 μM ATP
Excerpt: PanK from other organisms was reported to be negatively regulated by allosteric inhibition with CoA, acetyl CoA, and malonyl CoA ([Calder et al., 1999]; [Takagi et al., 2010]; [Vallari et al., 1987]). […] The mechanisms of inhibition by acetyl CoA were not clear but seemed to be the mixed type with respect to ATP and pantothenate (Fig. 3).
Fig. 2 Effect of CoA, acetyl CoA, and malonyl CoA on the pantothenate kinase activities. Relative activities of EhPanK in the presence of various concentrations of inhibitors to those without inhibitors are shown. […] The assays were carried out three times independently, and the results are shown as means ± SEM of triplicates.
Fig. 3 Double-reciprocal plots of the recombinant EhPanK in the presence of CoA (A and B), malonyl CoA (C and D), or acetyl CoA (E and F). The enzymatic activities were determined with various concentrations of ATP and 0.2 mM pantothenate (A, C, and E) or various concentrations of pantothenate and 100 μM ATP (B, D, and F), in the presence of three concentrations of inhibitors (0, 0.5, and 2 mM). Data are shown in means ± SEM of triplicate analyses.

[2] = test system: MRC-5 cells (human fibroblast); assay: Cytotoxicity against MRC-5 cells (WST-8, 48 h); assay type: cell-based; details: MRC5, MRC-5, 48 h, mean ± SEM, read-out: IC50 Normal human cell (MRC-5)
Protocol: Human fibroblast cells, MRC-5, were cultured on 96-well flat bottom plates at a density of 1.5 × 10^4 cells/well with 100 μl of MEM medium (Life Technologie) containing 10% fetal bovine serum (Hana-nesco Bio, Tokyo, Japan) and 1% penicillin-streptomycin (Life Technologies). Cells were incubated at 37 °C with 5% CO2 for 48 h. Approximately 100 μl of MEM medium containing 5 μl of each compound dissolved in 50% DMSO in water were added to each well. After the plates were incubated for 48 h, approximately 10 μl of WST-8 (Dojindo, Kumamoto, Japan) was added to each well and the plate was incubated at 37 °C with 5% CO2 for 2 h. The absorbance was measured at 450 nm by spectrophotometer (SH-9000Lab, Corona Electric, Ibaraki, Japan). Growth of MRC-5 cells was measured in duplicate. Staurosporine (Kitasato Natural Products Library) was used as a positive (cytotoxic) control in a concentration range of 0.5 pM to 0.1 nM IC50 values were calculated as described previously.

[3] = test system: E. histolytica trophozoite (HM-1:IMSS cl6); assay: Anti-amebic activity, trophozoite viability (WST-1, 48 h); assay type: cell-based, Entamoeba histolytica; details: HM-1:IMSS cl6 trophozoites, anaerobic, 35.5 °C, mean ± SEM
Protocol: Approximately 1 × 10^4 trophozoites of E. histolytica clonal strain HM-1:IMSS cl6 in 200 μl of BI-S-33 medium were dispensed into each well of a 96-well plate and incubated at 35.5 °C for 2 h. Medium was then removed and replaced with 200 μl of BI-S-33 medium that contained various concentrations of each compound. […] The plate was incubated under anaerobic conditions at 35.5 °C for 48 h. After the medium was removed, 100 μl of pre-warmed Opti-MEM I (Life Technologies, Grand Islands, NY, USA) containing one-tenth volume of WST-1 (Roche, Mannheim, Germany) was added. The viability of trophozoites was estimated by measuring absorbance at 450 nm by SpectraMax® Paradigm® (Molecular Devices, CA, USA). Metronidazole was used as positive control at final concentrations of 0.1–10 μM and 0.5% DMSO as negative control. Each assay was performed in triplicate. IC50 values were calculated by least squares curve fitting of the dose inhibition curves using GraphPad Prism (GraphPad Software Inc., San Diego, USA).

[4] = target: E. histolytica PanK (EhPanK) recombinant enzyme (Entamoeba histolytica, UniProt B1N2P3); assay: biochemical
Protocol: We screened 244 compounds from the Kitasato Natural Products Library for inhibition of EhPanK activity. Initially, each compound was dissolved in 50% DMSO and water at a final concentration of 1 mg/mL. Enzymatic reactions were carried out on a black 384-well microtiter plate with a 20 μL reaction mixture composed of 19 μl enzyme mix (100 μM pantothenate, 100 μM ATP, 50 ng of EhPanK recombinant enzyme in kinase buffer (see above) and 1 μl of the individual compounds (final concentration 50 μg/mL or 25–200 μM) at 37 °C for 2 h. After the kinase reaction, ADP was measured using ADP Hunter™ Plus kinase assay kit as described previously. Inhibition values were measured in triplicate.
Fig. S8. Dose-response data of inhibitors against EhPanK inhibitors. IC50 values were determined by dose-response-inhibition using GraphPad Prism (GraphPad Software Inc., San Diego, USA). Data are shown in mean of three replicates.

[5] = target: T1, E. histolytica pantothenate kinase; assay: Phosphoryl donor specificity of EhPanK; assay type: biochemical; details: donor 100 μM, 0.2 mM pantothenate, 10 mM MgCl2, 37 °C, pH 6; relative to ATP; ND = not detected
Excerpt: EhPanK utilized various nucleoside triphosphates, ATP, CTP, GTP, UTP, dATP, and polyphosphates, as well as deoxynucleotides as phosphoryl donors, with ATP being the best phosphate donor (Table 2).

[6] = cation 5 mM, 0.2 mM pantothenate, 37 °C, pH 6.0, relative to MgCl2, ND = not detected
[7] = recombinant EhPanK, 100 μM pantothenate, 100 μM ATP, 37 °C, 2 h, mean ± SEM of three replicates, read-out: IC50 against EhPanK activity

Chain of E. histolytica PanK (EhPanK) recombinant enzyme (B1N2P3 entry or part of it): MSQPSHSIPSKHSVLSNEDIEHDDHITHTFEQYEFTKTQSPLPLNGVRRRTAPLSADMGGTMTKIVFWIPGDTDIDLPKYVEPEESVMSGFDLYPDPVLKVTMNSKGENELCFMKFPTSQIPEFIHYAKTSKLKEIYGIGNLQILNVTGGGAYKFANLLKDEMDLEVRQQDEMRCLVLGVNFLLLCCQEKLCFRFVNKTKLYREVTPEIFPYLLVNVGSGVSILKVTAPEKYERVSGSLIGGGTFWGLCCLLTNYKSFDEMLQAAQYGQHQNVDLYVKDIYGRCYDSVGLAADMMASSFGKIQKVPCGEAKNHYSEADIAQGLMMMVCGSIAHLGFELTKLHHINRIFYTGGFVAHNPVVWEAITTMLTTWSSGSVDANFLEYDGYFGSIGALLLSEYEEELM
T1 sequence (B1N2P3 entry or part of it): as above

Molecule | IC50 [2] [µM] | IC50 ([3]; Entamoeba histolytica) [µM] | IC50 [4, 7] [µM] | other results
[Cl][Mn][Cl] [MnCl2] | – | – | – | Relative activity (metal) [1, 6]: 83.2 ± 2.0%
CC(C)(COP(=O)(O)OP(=O)(O)OC[C@H]1O[C@@H](n2cnc3c(N)ncnc32)[C@H](O)[C@@H]1OP(=O)(O)O)[C@@H](O)C(=O)NCCC(=O)NCCS [CoA, Coenzyme A] | – | – | – | Mechanism of inhibition with respect to ATP (recombinant EhPanK): competitive; Mechanism of inhibition with respect to pantothenate (recombinant EhPanK): uncompetitive
CCC1OC(=O)CC(O)C(C)C(O[C@@H]2O[C@H](C)C[C@H](N(C)C)[C@H]2O)C(CC=O)CC(C)C(=O)/C=C/C2(C)OC2C1C (stereo partly shown) [Rosamycin] | 34.4 ± 2.71 | 56.3 ± 11.7 | 166 ± 2 | –
Nc1ncnc2c1ncn2[C@H]1C[C@H](O)[C@@H](COP(=O)(O)OP(=O)(O)OP(=O)(O)O)O1 [dATP] | – | – | – | Relative activity (phosphoryl donor) [5]: 19.3 ± 4.3%
[Ca+2].[Cl-].[Cl-] [CaCl2] | – | – | – | Relative activity (metal) [1, 6]: 17.0 ± 3.0%
C[C@H]1O[C@H](O[C@H]2[C@H](O)[C@@H](O)[C@@H](O)[C@H](O)[C@@H]2O)[C@@H](N)C[C@@H]1NC(=N)C(=O)O [Kasugamycin] | 87.1 ± 7.22 | 66.2 ± 13.7 | – | IC50 [4]: 254 ± 4.7 µM
CC(/C=C/C(=O)NO)=C\[C@@H](C)C(=O)c1ccc(N(C)C)cc1 [Trichostatin] | 2.62 ± 0.49 | – | 310 ± 14.9 | –
CS[C@H]1SC[C@H]2C(=O)N(C)[C@@H](C(C)C)C(=O)OC[C@@H](NC(=O)c3cnc4ccccc4n3)C(=O)N[C@@H](C)C(=O)N(C)[C@@H]1C(=O)N(C)[C@@H](C(C)C)C(=O)OC[C@@H](NC(=O)c1cnc3ccccc3n1)C(=O)N[C@@H](C)C(=O)N2C [Echinomycin] | < 0.38 | – | 77.8 ± 4.4 | –
Nc1ncnc2c1ncn2[C@@H]1O[C@H](COP(=O)(O)OP(=O)(O)OP(=O)(O)O)[C@@H](O)[C@H]1O [ATP] | – | – | – | Relative activity (phosphoryl donor) [5]: 100.0 ± 4.1%
[Cl-].[Cl-].[Mg+2] [MgCl2] | – | – | – | Relative activity (metal) [1, 6]: 100.0 ± 0.0%
LiCl2 | – | – | – | Relative activity (metal) [1, 6]: 34.5 ± 1.8%
[H]/N=C(/N)N[C@H]1[C@H](O)[C@@H](O)[C@H](O[C@@H]2O[C@@H](C)[C@](O)(C=O)[C@H]2O[C@@H]2O[C@@H](CO)[C@H](O)[C@@H](O)[C@@H]2NC)[C@@H](N/C(N)=N\[H])[C@@H]1O [Streptomycin] | > 172 | 77.5 ± 1.52 | 155 ± 10.1 | –
Polyphosphate | – | – | – | Relative activity (phosphoryl donor) [5]: 16.2 ± 2.5%
Nc1ccn([C@@H]2O[C@H](COP(=O)(O)OP(=O)(O)OP(=O)(O)O)[C@@H](O)[C@H]2O)c(=O)n1 [CTP] | – | – | – | Relative activity (phosphoryl donor) [5]: 1.4 ± 0.2%
COc1cccc2c1C(=O)C1=C(C[C@@H](CC(=O)O)O[C@@H]1C)C2=O [O-methylnanaomycin A] | 19 ± 0.49 | – | 284 ± 28.7 | –
NC[C@@H]1O[C@H](O[C@H]2[C@@H](O)[C@H](O[C@@H]3[C@@H](O)[C@H](N)C[C@H](N)[C@H]3O[C@H]3O[C@H](CN)[C@@H](O)[C@H](O)[C@H]3N)O[C@@H]2CO)[C@H](N)[C@@H](O)[C@@H]1O [Neomycin] | > 163 | < 20 | 147 ± 6.8 | IC50 [3]: 10.6 ± 1.12 µM

Molecule | IC50 [2] [µM] | IC50 ([3]; Entamoeba histolytica) [µM] | IC50 [4, 7] [µM] | other results
O=P(O)(O)OP(=O)(O)OP(=O)(O)O [Tripolyphosphate] | – | – | – | Relative activity (phosphoryl donor) [5]: 16.9 ± 0.8%
O=c1ccn([C@@H]2O[C@H](COP(=O)(O)OP(=O)(O)OP(=O)(O)O)[C@@H](O)[C@H]2O)c(=O)[nH]1 [UTP] | – | – | – | Relative activity (phosphoryl donor) [5]: 16.6 ± 1.2%
CC(/C=C/C(O)=C1/C(=O)CNC1=O)=C\C(C)C1OC2(C)OC(C(=O)C3OC32C)C1C (stereo not shown) [Tirandamycin A] | 144 ± 3.8 | < 20 | 229 ± 3.4 | IC50 [3]: 13.7 ± 4.85 µM
Cc1cn([C@H]2C[C@H](O)[C@@H](COP(=O)(O)OP(=O)(O)OP(=O)(O)O)O2)c(=O)[nH]c1=O [TTP] | – | – | – | Relative activity (phosphoryl donor) [5]: 5.4 ± 1.9%
CC(C)(COP(=O)(O)OP(=O)(O)OC[C@H]1O[C@@H](n2cnc3c(N)ncnc32)[C@H](O)[C@@H]1OP(=O)(O)O)[C@@H](O)C(=O)NCCC(=O)NCCSC(=O)CC(=O)O [malonyl CoA] | – | – | – | Mechanism of inhibition with respect to ATP (recombinant EhPanK): competitive; Mechanism of inhibition with respect to pantothenate (recombinant EhPanK): non-competitive
CC[C@H]1OC(=O)[C@H](C)[C@@H](O[C@H]2C[C@@](C)(OC)[C@@H](O)[C@H](C)O2)[C@H](C)[C@@H](O[C@@H]2O[C@H](C)C[C@H](N(C)C)[C@H]2O)[C@](C)(O)C[C@@H](C)C(=O)[C@H](C)[C@@H](O)[C@]1(C)O [Erythromycin A] | > 136 | 156 ± 20.6 | 131 ± 6 | –
Cc1ncc([N+](=O)[O-])n1CCO [Metronidazole] | > 100 | 0.66 ± 0.05 | – | –
[Cl-].[Cl-].[Zn+2] [ZnCl2] | – | – | – | Relative activity (metal) [1, 6]: 3.9 ± 0.7%
[Cl][Cu][Cl] [CuCl2] | – | – | – | Relative activity (metal) [1, 6]: 84.3 ± 4.7%
CCCCC/C=C\CCC(=O)N[C@H]1[C@H](Oc2c3cc4cc2Oc2ccc(cc2Cl)[C@@H](O[C@@H]2O[C@H](CO)[C@@H](O)[C@H](O)[C@H]2NC(C)=O)[C@@H]2NC(=O)[C@H](NC(=O)[C@@H]4NC(=O)[C@H]4NC(=O)[C@@H](Cc5ccc(c(Cl)c5)O3)NC(=O)[C@H](N)c3ccc(O)c(c3)Oc3cc(O)cc4c3)c3ccc(O)c(c3)-c3c(O[C@H]4O[C@H](CO)[C@@H](O)[C@H](O)[C@@H]4O)cc(O)cc3[C@@H](C(=O)O)NC2=O)O[C@H](CO)[C@@H](O)[C@@H]1O [Teicoplanin] | – | – | – | IC50 ([4]; read-out: IC50 against EhPanK activity, recombinant EhPanK, 100 μM pantothenate, 100 μM ATP, 37 °C, 2 h, mean ± SEM of three replicates): 26.3 ± 2.6 µM
CC(=O)[C@H]1O[C@@H](Oc2ccc(/C=C(\C)C(=O)N[C@@H]3[C@H](O)[C@@H](O)[C@H]4OCO[C@H]4[C@@H]3O)cc2O)[C@@H](O)[C@@H]1O [Hygromycin A] | > 196 | 142 ± 16.3 | 194 ± 17.8 | –
[Cl-].[Cl-].[Co+2] [CoCl2] | – | – | – | Relative activity (metal) ([1]; pH 6): 74.2 ± 6.1%
[Cl][Fe][Cl] [FeCl2] | – | – | – | Relative activity (metal) [1, 6]: 72.8 ± 1.7%
O=C1OC2(OC=C(c3ccccc3)C2=O)c2ccccc21 (stereo not shown) [Fluorescamine] | 288 ± 17.8 | 168 ± 20.1 | – | IC50 ([4]; read-out: IC50 against EhPanK activity): 346 ± 14.7 µM
Nc1nc2c(ncn2[C@@H]2O[C@H](COP(=O)(O)OP(=O)(O)OP(=O)(O)O)[C@@H](O)[C@H]2O)c(=O)[nH]1 [GTP] | – | – | – | Relative activity (phosphoryl donor) [5]: 78.8 ± 4.9%
O=C(Cc1cccs1)N[C@@H]1C(=O)N2C(C(=O)[O-])=C(C[n+]3ccccc3)CS[C@H]12 [Cephaloridine] | 48.2 ± 3.61 | 246 ± 34.9 | 230 ± 10.1 | –
